Results published in patent US20220306695A1, “COMPSTATIN ANALOGUES AND THEIR MEDICAL USES” (priority 2019, published 2022).
Like-named read-outs stand apart in the source and are kept apart here. Starred links: 1 amine or outer side, 2 acyl side, 3 side chain; linkers in the order of their positions; H or OH if unused. Positions of bridges follow the written chain, without caps; N, C: chain ends. Non-standard residues stand in square brackets, D forms with d. Residues, ends and D or L forms follow the SMILES beside them. Groups on a side chain read outwards from the residue. *: point of attachment. Trp(1-Me) = Cn1cc(C[C@H](N)C(=O)O)c2ccccc21; Abu(4-yl) = O=C([C@H](CC[*:3])N[*:1])[*:2]; C18 diacid = O=C(O)CCCCCCCCCCCCCCCCC(=O)*; C16 diacid = O=C(O)CCCCCCCCCCCCCCC(=O)*; γGlu = O=C(O)[C@H](CCC(=O)[*:2])N[*:1]; AEEA = NCCOCCOCC(=O)O; Sar = CNCC(=O)O

B1: Compound 103 (peptide)
peptide: Ac-EGSAYCI[Trp(1-Me)]QDWGEHK([AEEA-AEEA-γGlu-C16 diacid])C[Sar]E-NH2
modifications: disulfide 6-16
SMILES: CC[C@H](C)[C@@H]1NC(=O)[C@@H](NC(=O)[C@H](Cc2ccc(O)cc2)NC(=O)[C@H](C)NC(=O)[C@H](CO)NC(=O)CNC(=O)[C@H](CCC(=O)O)NC(C)=O)CSSC[C@@H](C(=O)N(C)CC(=O)N[C@@H](CCC(=O)O)C(N)=O)NC(=O)[C@H](CCCCNC(=O)COCCOCCNC(=O)COCCOCCNC(=O)CC[C@H](NC(=O)CCCCCCCCCCCCCCC(=O)O)C(=O)O)NC(=O)[C@H](Cc2c[nH]cn2)NC(=O)[C@H](CCC(=O)O)NC(=O)CNC(=O)[C@H](Cc2c[nH]c3ccccc23)NC(=O)[C@H](CC(=O)O)NC(=O)[C@H](CCC(N)=O)NC(=O)[C@H](Cc2cn(C)c3ccccc23)NC1=O
B2: Compound 108 (peptide)
peptide: {C18 diacid}-EGSEYCI[Trp(1-Me)]QDWGEHRC[Sar]E-NH2
modifications: disulfide 6-16
SMILES: CC[C@H](C)[C@@H]1NC(=O)[C@@H](NC(=O)[C@H](Cc2ccc(O)cc2)NC(=O)[C@H](CCC(=O)O)NC(=O)[C@H](CO)NC(=O)CNC(=O)[C@H](CCC(=O)O)NC(=O)CCCCCCCCCCCCCCCCC(=O)O)CSSC[C@@H](C(=O)N(C)CC(=O)N[C@@H](CCC(=O)O)C(N)=O)NC(=O)[C@H](CCCNC(=N)N)NC(=O)[C@H](Cc2c[nH]cn2)NC(=O)[C@H](CCC(=O)O)NC(=O)CNC(=O)[C@H](Cc2c[nH]c3ccccc23)NC(=O)[C@H](CC(=O)O)NC(=O)[C@H](CCC(N)=O)NC(=O)[C@H](Cc2cn(C)c3ccccc23)NC1=O
B3: Compound 100 (peptide)
peptide: Ac-K([AEEA-AEEA-γGlu-C16 diacid])GSAICIWQDWGEHRCTEGE-NH2
modifications: disulfide 6-16
SMILES: CC[C@H](C)[C@H](NC(=O)[C@H](C)NC(=O)[C@H](CO)NC(=O)CNC(=O)[C@H](CCCCNC(=O)COCCOCCNC(=O)COCCOCCNC(=O)CC[C@H](NC(=O)CCCCCCCCCCCCCCC(=O)O)C(=O)O)NC(C)=O)C(=O)N[C@H]1CSSC[C@@H](C(=O)N[C@H](C(=O)N[C@@H](CCC(=O)O)C(=O)NCC(=O)N[C@@H](CCC(=O)O)C(N)=O)[C@@H](C)O)NC(=O)[C@H](CCCNC(=N)N)NC(=O)[C@H](Cc2c[nH]cn2)NC(=O)[C@H](CCC(=O)O)NC(=O)CNC(=O)[C@H](Cc2c[nH]c3ccccc23)NC(=O)[C@H](CC(=O)O)NC(=O)[C@H](CCC(N)=O)NC(=O)[C@H](Cc2c[nH]c3ccccc23)NC(=O)[C@H]([C@@H](C)CC)NC1=O
B4: Compound 93 (peptide)
peptide: Ac-ICIWQDWGEHRCTEGK([AEEA-AEEA-γGlu-C16 diacid])-NH2
modifications: disulfide 2-12
SMILES: CC[C@H](C)[C@H](NC(C)=O)C(=O)N[C@H]1CSSC[C@@H](C(=O)N[C@H](C(=O)N[C@@H](CCC(=O)O)C(=O)NCC(=O)N[C@@H](CCCCNC(=O)COCCOCCNC(=O)COCCOCCNC(=O)CC[C@H](NC(=O)CCCCCCCCCCCCCCC(=O)O)C(=O)O)C(N)=O)[C@@H](C)O)NC(=O)[C@H](CCCNC(=N)N)NC(=O)[C@H](Cc2c[nH]cn2)NC(=O)[C@H](CCC(=O)O)NC(=O)CNC(=O)[C@H](Cc2c[nH]c3ccccc23)NC(=O)[C@H](CC(=O)O)NC(=O)[C@H](CCC(N)=O)NC(=O)[C@H](Cc2c[nH]c3ccccc23)NC(=O)[C@H]([C@@H](C)CC)NC1=O

Experiments:
[1] = assay type: physicochemical; details: 50 mg/mL peptide; for Covalent oligomer content after 14 days 40° C. (%), F1 / Purity after 14 days 40° C. (%), F1: F1: 20 mM phosphate pH 5.5; for Covalent oligomer content after 14 days 40° C. (%), F1 / Covalent oligomer content after 14 days 40° C. (%), F2: denaturing SEC; for Purity after 14 days 40° C. (%), F1 / Purity after 14 days 40° C. (%), F2 / Purity after 14 days 40° C. (%), F3: normalized purity (HPLC)
Method: Chemical stability of compstatin analogues with cystathionine or disulfide bridge. Stability was assessed in three formulations at 50 mg/mL peptide, F1:20 mM phosphate pH 5.5, F2:20 mM phosphate pH 6.5 and F3:20 mM phosphate pH 7.5. The formulations were prepared by direct dissolution of peptide from lyophilized portions in the respective formulations. pH was adjusted to target with 1 M NaOH and 1 M HCl. Chemical stability was assessed under accelerated conditions (14 days, 40° C.) and evaluated as change in purity by reverse phase HPLC, and change in covalent oligomer content by denaturing SEC. The formulations were placed at 40° C. with analysis points at T=0, 7 and 14 days. On each time point a small volume was extracted and diluted to 2 mg/mL and tested by reverse phase HPLC and denaturing SEC. Purity was assessed by reverse phase HPLC using an Ultimate 3000 system for binary gradient application equipped with a Kinetix C18 column (cat. no. 00F-4462-Y0, 150 mm×3 mm, 2.6 μm) run at 0.5 ml/min with a gradient of buffer A (0.3% TFA, aq.) and buffer B (0.3% TFA, 90% MeCN, aq.) gradient from 40% B to 70% B over 20 min. Detection was done using a diode array detector set to 220 nm. Covalent oligomer formation was assessed by denaturing SEC (size exclusion chromatography) using an Ultimate 3000 system equipped with a TSKgel SuperSW 2000 column (cat. no. 818674, 300 mm×3 mm, 4 μm) run at 0.5 ml/min with isocratic flow of buffer A (0.1% TFA, 45% MeCN, aq.), 10 min. Detection was done using a diode array detector set to 215 nm. Compounds 126 and 156 were carefully weighed out and dissolved in formulations F1, F2 and F3 to a target concentration of 50 mg/mL. Once visually dissolved, concentration was confirmed by absorbance at 280 nm, and samples were placed in stability at 40° C. Samples for analysis were extracted on T=0, 7 and 14 days from a 40° C. climate chamber. The extracted volume was dissolved 1:25 (final concentration: 2 mg/mL) in 20 mM phosphate pH 5.5, 6.5 or 7.5 and measured by reverse phase HPLC and denaturing SEC by injection of 0.4 μL (column load […]). The resulting chromatograms were integrated to determine chemical purity by reverse phase HPLC and covalent oligomer content by denaturing SEC.

[2] = system: classical complement pathway; assay: In vitro haemolysis assay (inhibition of classical complement pathway); assay type: cell-based, human; details: Table 3; human serum, sensitized sheep red blood cells; read-out: IC50[nM], in vitro analysis of inhibition of hemolysis
Outline: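 Serially diluted compound (9 points) was preincubated 15 min at room temperature with diluted human serum, titrated per batch to give 70-90% maximal haemolysis, in Tris/casein buffer pH 7.4 with Mg2+/Ca2+. Antibody-sensitized sheep erythrocytes were then added for 30 min at 37° C, and the reaction was stopped with EDTA. Haemolysis was read at A405, with IC50 from 4PL fit.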

Human C3 [3] = target: T1, Human C3 (human, UniProt P01024 23-1663); assay: cell-based or functional assay
Human C3 [4] = target: T1, Human C3; assay: cell-based or functional assay; remark: listed apart in the source

T1 sequence (P01024 23-1663 limits assumed): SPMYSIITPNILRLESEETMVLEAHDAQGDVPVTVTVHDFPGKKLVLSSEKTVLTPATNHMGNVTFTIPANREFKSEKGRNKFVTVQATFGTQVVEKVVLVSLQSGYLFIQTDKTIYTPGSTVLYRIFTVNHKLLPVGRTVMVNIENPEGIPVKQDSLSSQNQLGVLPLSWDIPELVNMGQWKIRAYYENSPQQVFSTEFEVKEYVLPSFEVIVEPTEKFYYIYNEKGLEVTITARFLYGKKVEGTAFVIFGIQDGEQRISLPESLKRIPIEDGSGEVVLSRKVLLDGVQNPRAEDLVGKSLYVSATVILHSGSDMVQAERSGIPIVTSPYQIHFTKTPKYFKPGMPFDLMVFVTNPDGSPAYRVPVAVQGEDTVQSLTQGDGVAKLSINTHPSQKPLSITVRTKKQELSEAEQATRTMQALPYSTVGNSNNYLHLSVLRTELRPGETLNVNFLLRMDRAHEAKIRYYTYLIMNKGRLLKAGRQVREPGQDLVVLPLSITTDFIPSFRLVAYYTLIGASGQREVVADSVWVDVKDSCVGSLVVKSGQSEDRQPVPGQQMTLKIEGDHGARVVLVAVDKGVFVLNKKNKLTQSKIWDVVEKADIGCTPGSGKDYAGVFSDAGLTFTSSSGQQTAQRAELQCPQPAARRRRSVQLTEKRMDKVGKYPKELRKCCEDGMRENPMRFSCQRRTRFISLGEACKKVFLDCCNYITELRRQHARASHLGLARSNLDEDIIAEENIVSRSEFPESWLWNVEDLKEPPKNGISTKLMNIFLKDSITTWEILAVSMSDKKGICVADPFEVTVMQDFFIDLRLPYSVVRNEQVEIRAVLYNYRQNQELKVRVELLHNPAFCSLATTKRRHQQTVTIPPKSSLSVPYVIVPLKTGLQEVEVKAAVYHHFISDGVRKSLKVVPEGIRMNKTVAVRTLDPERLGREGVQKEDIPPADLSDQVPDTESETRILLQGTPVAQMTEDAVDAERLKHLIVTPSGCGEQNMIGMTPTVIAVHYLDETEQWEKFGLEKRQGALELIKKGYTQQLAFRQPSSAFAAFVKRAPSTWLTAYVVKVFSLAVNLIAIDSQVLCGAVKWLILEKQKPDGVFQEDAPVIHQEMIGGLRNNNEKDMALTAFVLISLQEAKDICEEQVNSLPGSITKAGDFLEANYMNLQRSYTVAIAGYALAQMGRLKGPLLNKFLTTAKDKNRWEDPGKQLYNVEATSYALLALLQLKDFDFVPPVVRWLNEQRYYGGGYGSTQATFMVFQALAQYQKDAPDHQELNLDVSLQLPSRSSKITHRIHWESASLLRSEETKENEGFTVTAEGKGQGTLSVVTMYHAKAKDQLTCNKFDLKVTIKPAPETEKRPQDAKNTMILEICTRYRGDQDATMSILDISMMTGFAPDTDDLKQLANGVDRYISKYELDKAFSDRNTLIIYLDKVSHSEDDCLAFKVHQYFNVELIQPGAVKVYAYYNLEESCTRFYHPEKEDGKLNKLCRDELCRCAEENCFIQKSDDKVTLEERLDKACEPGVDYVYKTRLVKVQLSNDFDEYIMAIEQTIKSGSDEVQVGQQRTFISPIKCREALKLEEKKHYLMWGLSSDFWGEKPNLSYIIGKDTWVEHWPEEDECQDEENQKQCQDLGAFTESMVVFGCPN

Row | Molecule | Covalent oligomer content after 14 days 40° C. (%), F1 [1] | Purity after 14 days 40° C. (%), F1 [1] | Covalent oligomer content after 14 days 40° C. (%), F2 ([1]; F2: 20 mM phosphate pH 6.5) | Purity after 14 days 40° C. (%), F2 ([1]; F2: 20 mM phosphate pH 6.5) | Covalent oligomer content after 14 days 40° C. (%), F2 ([1]; F3: 20 mM phosphate pH 7.5) | Purity after 14 days 40° C. (%), F3 ([1]; F3: 20 mM phosphate pH 7.5) | IC50 [2] | IC50[nM], inhibition of hemolysis (Human C3 [3]) | IC50[nM], inhibition of hemolysis (Human C3 [4])
1 | CC[C@H](C)[C@@H]1NC(=O)[C@@H](NC(=O)[C@H](Cc2ccccc2)NC(=O)[C@H](CCC(=O)O)NC(=O)[C@H](CO)NC(C)=O)CSCC[C@@H](C(=O)N[C@H](C(=O)N[C@@H](CCC(=O)O)C(=O)NCC(=O)N[C@@H](CCC(=O)O)C(=O)NCCOCCOCC(=O)NCCOCCOCC(=O)N[C@@H](CCCCNC(=O)CC[C@H](NC(=O)CNC(=O)CC[C@H](NC(=O)CCCCCCCCCCCCCCCCC(=O)O)C(=O)O)C(=O)O)C(N)=O)[C@@H](C)O)NC(=O)[C@H](CCCNC(=N)N)NC(=O)[C@H](Cc2c[nH]cn2)NC(=O)[C@H](CCC(=O)O)NC(=O)CNC(=O)[C@H](Cc2c[nH]c3ccccc23)NC(=O)[C@H](CC(=O)O)NC(=O)[C@H](CCC(N)=O)NC(=O)[C@H](Cc2cn(C)c3ccccc23)NC1=O [Compound 156, Ac-SEFA(1)I[1-Me-Trp]QDWGEHRhC(1)TEGE[Peg3][Peg3]-K([17-carboxy-heptadecanoyl][γGlu]G[γGlu])-NH2] (Ac-SEFCI[Trp(1-Me)]QDWGEHR[Abu(4-yl)]TEGE[AEEA][AEEA]K([γGlu-Gly-γGlu-C18 diacid])-NH2; thioether 4-14) | 1.1% | 92% | 0.5% | 96% | 1.1% | 95% | < 100 nM |  | 
2 | CC[C@H](C)[C@@H]1NC(=O)[C@@H](NC(=O)[C@H](Cc2ccccc2)NC(=O)[C@H](CCC(=O)O)NC(=O)[C@H](CO)NC(C)=O)CSCC[C@@H](C(=O)N(C)CC(=O)N[C@@H](CCC(=O)O)C(=O)NCC(=O)N[C@@H](CCC(=O)O)C(=O)NCCOCCOCC(=O)NCCOCCOCC(=O)N[C@@H](CCCCNC(=O)CC[C@H](NC(=O)CNC(=O)CC[C@H](NC(=O)CCCCCCCCCCCCCCCCC(=O)O)C(=O)O)C(=O)O)C(N)=O)NC(=O)[C@H](CCCNC(=N)N)NC(=O)[C@H](Cc2c[nH]cn2)NC(=O)[C@H](CCC(=O)O)NC(=O)CNC(=O)[C@H](Cc2c[nH]c3ccccc23)NC(=O)[C@H](CCC(=O)O)NC(=O)[C@H](CCC(N)=O)NC(=O)[C@H](Cc2cn(C)c3ccccc23)NC1=O [Compound 153] (Ac-SEFCI[Trp(1-Me)]QEWGEHR[Abu(4-yl)][Sar]EGE[AEEA][AEEA]K([γGlu-Gly-γGlu-C18 diacid])-NH2; thioether 4-14) | 0.7% | 97% | 0.5% | 99% | 0.3% | 99% | < 100 nM |  | 
3 | CC[C@H](C)[C@@H]1NC(=O)[C@@H](NC(=O)[C@H](Cc2ccccc2)NC(=O)[C@H](CCC(=O)O)NC(=O)[C@H](CO)NC(C)=O)CSSC[C@@H](C(=O)N[C@H](C(=O)N[C@@H](CCC(=O)O)C(=O)NCC(=O)N[C@@H](CCC(=O)O)C(=O)NCCOCCOCC(=O)NCCOCCOCC(=O)N[C@@H](CCCCNC(=O)CC[C@H](NC(=O)CNC(=O)CC[C@H](NC(=O)CCCCCCCCCCCCCCCCC(=O)O)C(=O)O)C(=O)O)C(N)=O)[C@@H](C)O)NC(=O)[C@H](CCCNC(=N)N)NC(=O)[C@H](Cc2c[nH]cn2)NC(=O)[C@H](CCC(=O)O)NC(=O)CNC(=O)[C@H](Cc2c[nH]c3ccccc23)NC(=O)[C@H](CC(=O)O)NC(=O)[C@H](CCC(N)=O)NC(=O)[C@H](Cc2cn(C)c3ccccc23)NC1=O [Compound 126] (Ac-SEFCI[Trp(1-Me)]QDWGEHRCTEGE[AEEA][AEEA]K([γGlu-Gly-γGlu-C18 diacid])-NH2; disulfide 4-14) | 66% | 45% | 54% | 47% | 41% | 57% | < 100 nM |  | 
4 | B1 |  |  |  |  |  |  |  | < 100 nM | 
5 | B2 |  |  |  |  |  |  |  | < 500 nM | 
6 | B3 |  |  |  |  |  |  |  | < 500 nM | 
7 | B4 |  |  |  |  |  |  |  |  | < 500 nM
8 | Ac-SAYCI[Trp(1-Me)]QDWGEHRC[Sar]EK([γGlu-Gly-Lys-γGlu-C18 diacid])-NH2 (disulfide 4-14) [Compound 105] |  |  |  |  |  |  |  | < 100 nM | 
